Results reported in patent US10266544B2, “Aryl substituted aminomethyl spectinomycin analogs as antibacterial agents” (ST. JUDE CHILDREN'S RESEARCH HOSPITAL, INC., priority 2013, dated 2019).
Structures can show the parent of a compound that is named as a salt. Where two headings read alike, the source gives them in different places.

Key:
Assay type in all cases: cell-based
[1] = system: Bacillus anthracis, Sterne 34F2; assay: microbe, parasite or virus in culture; settings: STERNE34F2, read-out: MIC B.a.
[2] = system: Bacillus subtilis (ATCC 23857); assay: MIC determination, microbroth dilution; settings: ATCC23857; Bacillus subtilis (ATCC 23857); read-out: MIC B.s.
[3] = system: Enterococcus faecalis (ATCC 33186); assay: MIC determination, microbroth dilution
[4] = system: Staphylococcus aureus (ATCC 29213); assay: MIC determination, microbroth dilution; settings: ATCC29213; Staphylococcus aureus (ATCC 29213); read-out: MIC S.a.
[5] = system: MRSA, Staphylococcus aureus (NRS70); assay: MIC determination, microbroth dilution; settings: Staphylococcus aureus (NRS70); read-out: MIC MRSA
[6] = system: Streptococcus pneumoniae (R6); assay: MIC determination, microbroth dilution; settings: Streptococcus pneumoniae (R6); read-out: MIC S. pn.
[7] = system: Streptococcus pyogenes (ATCC 700294); assay: MIC determination, microbroth dilution
[8] = system: acinetobacter baumannii (ATCC 19606); assay: MIC determination, microbroth dilution; settings: ATCC19606
[9] = system: Burkholderia cepacia (ATCC 25416); assay: MIC determination, microbroth dilution; settings: Burkholderia cepacia
[10] = system: Escherichia coli (ATCC 700926); assay: MIC determination, microbroth dilution; settings: ATCC700926; Escherichia coli (ATCC 700926); read-out: MIC E.c.
E. coli K12 ΔtolC = assay: microbe, parasite or virus in culture; settings: Escherichia coli, read-out: MIC E.c. Δtolc
[11] = system: Klebsiella pneumoniae (ATCC 33495); assay: MIC determination, microbroth dilution; settings: ATCC33495
[12] = system: Pseudomonas aeruginosa (PA01); assay: MIC determination, microbroth dilution
[13] = system: Proteus mirabilis (ATCC 25933); assay: MIC determination, microbroth dilution; settings: ATCC25933
[14] = system: Proteus vulgaris (ATCC 33420); assay: MIC determination, microbroth dilution; settings: ATCC33420
[15] = system: Stenotrophomonas maltophilia (ATCC 13637); assay: MIC determination, microbroth dilution
[16] = system: Haemophilus influenza (ATCC 49247); assay: microbe, parasite or virus in culture; settings: ATCC49247; Haemophilus influenza; 4 μg per disc; range of at least two experiments; read-out: Zone of inhibition H.i.
[17] = system: Legionella pneumophila (ATCC 33153); assay: microbe, parasite or virus in culture; settings: ATCC33153, 72 h, read-out: Zone of inhibition L.p.
[18] = system: Neisseria meningitides (ATCC 13077); assay: Disc diffusion assay; settings: ATCC13077, 4 μg per disc, read-out: Zone of inhibition N.m.
[19] = system: Neisseria gonorrhoeae (ATCC 49226); assay: Disc diffusion assay; settings: ATCC49226, 4 μg per disc, read-out: Zone of inhibition N.g.
[20] = system: Neisseria gonorrhoeae (ATCC 49226); assay: Agar MIC determination (Alamar Blue)
Bacillus anthracis = assay: microbe, parasite or virus in culture; settings: read-out: MIC B.a.
[21] = system: M. tuberculosis clinical isolates; assay: microbe, parasite or virus in culture; settings: Mycobacterium tuberculosis, H37RV, read-out: MIC H37Rv
Listeria monocytogenes = assay: MIC determination (Table 6)
Moraxella catarrhalis = assay: MIC determination (Table 6)
Yersinia pestis = assay: microbe, parasite or virus in culture; settings: read-out: MIC Y.p.
[22] = ATCC33186, Enterococcus faecalis (ATCC 33186), read-out: MIC E.f.
[23] = ATCC700294, Streptococcus pyogenes (ATCC 700294), read-out: MIC S. py.
[24] = ATCC25416, read-out: MIC B.c., Burkholderia cepacia (ATCC 25416)
[25] = ATCC25416, read-out: MIC B.c., Burkholderia cepacia, Table 6
[26] = Stenotrophomonas maltophilia, ATCC13637, read-out: MIC S.m.
[27] = ATCC49226, agar MIC, read-out: MIC N.g.
[28] = ATCC13637, Stenotrophomonas maltophilia (ATCC 13637), read-out: MIC S.m.
[29] = Enterococcus faecalis, ATCC33186, read-out: MIC E.f.

Row | Structure (SMILES) | MIC [1] | MIC [2] | MIC [4] | MIC [5] | MIC [6] | MIC [8] | MIC [9, 24] | MIC [9, 25] | MIC [10] | MIC (E. coli K12 ΔtolC) | MIC [11] | MIC [12] | MIC [13] | MIC [14] | zone of inhibition at 4 µg/disc [16] | zone of inhibition at 4 µg/disc [17] | zone of inhibition at 4 µg/disc [18] | zone of inhibition at 4 µg/disc [19] | MIC (Bacillus anthracis) | MIC [21] | also measured
1 | CN[C@@H]1[C@H](O)[C@H](NC)[C@H]2O[C@]3(O)[C@H](O[C@@H]2[C@H]1O)O[C@H](C)C[C@@]3(O)CNCc1ccco1 [compound 8, 3′-(R)-3′-(2-furanylmethylaminomethyl)dihydrospectinomycin Trihydrochloride] | 50 mg/L | 12.5 mg/L | 50 mg/L | 200 mg/L | 12.5 mg/L | ≥ 200 mg/L | ≥ 200 mg/L | ≥ 200 mg/L | 50 mg/L | 6.3 to 12.5 mg/L | 200 mg/L | 200 mg/L | > 200 mg/L | > 200 mg/L | 9 mm | 41 mm | 10 mm | 8 mm | 100 mg/L | 25 mg/L | MIC [3, 22]: 50 mg/L; MIC [7, 23]: 12.5 to 25 mg/L; MIC [15, 26]: 6.3 to 12.5 mg/L; MIC [20, 27]: 50 mg/L; MIC (Listeria monocytogenes): 25 mg/L; MIC (Moraxella catarrhalis): 6.3 mg/L
2 | CN[C@@H]1[C@H](O)[C@H](NC)[C@H]2O[C@]3(O)[C@H](O[C@@H]2[C@H]1O)O[C@H](C)C[C@@]3(O)CNCc1ccncc1 [compound 9, 3′-(R)-3′-(4-pyridinylmethylaminomethyl)dihydrospectinomycin Tetrahydrobromide] | 100 to 200 mg/L | 200 mg/L | ≥ 200 mg/L | ≥ 200 mg/L | 25 to 50 mg/L | ≥ 200 mg/L | > 200 mg/L | > 200 mg/L | 50 mg/L | 12.5 mg/L | > 200 mg/L | ≥ 200 mg/L | > 200 mg/L | > 200 mg/L | 8 mm | 28 mm | 6 mm | 6 mm | 100 to 200 mg/L | 200 mg/L | MIC [3, 22]: > 200 mg/L; MIC [7, 23]: 25 to 50 mg/L; MIC [15, 28]: 200 mg/L; MIC [20, 27]: ≥ 200 mg/L; MIC (Listeria monocytogenes): 100 mg/L; MIC (Moraxella catarrhalis): 12.5 mg/L
3 | CN[C@@H]1[C@H](O)[C@H](NC)[C@H]2O[C@]3(O)[C@H](O[C@@H]2[C@H]1O)O[C@H](C)C[C@@]3(O)CNCc1ccccc1F [compound 14, 3′-(R)-3′-[(2-fluoro)benzylaminomethyl)]dihydrospectinomycin Trihydrochloride] | 50 to 100 mg/L | 6.3 mg/L | 200 mg/L | ≥ 200 mg/L | 3.1 to 6.3 mg/L | > 200 mg/L | 100 to 200 mg/L | 100 to 200 mg/L | 50 mg/L | 25 mg/L | ≥ 200 mg/L | ≥ 200 mg/L | > 200 mg/L | 100 mg/L | 11 to 12 mm | 36 mm | 19 mm | 18 mm | 50 to 100 mg/L | 50 mg/L | MIC [3, 22]: 50 mg/L; MIC [7, 23]: 3.1 mg/L; MIC [15, 28]: 12.5 to 25 mg/L; MIC [20, 27]: 12.5 to 25 mg/L; MIC (Yersinia pestis): > 200 mg/L; MIC (Listeria monocytogenes): 25 mg/L; MIC (Moraxella catarrhalis): 1.6 mg/L
4 | CN[C@@H]1[C@H](O)[C@H](NC)[C@H]2O[C@]3(O)[C@H](O[C@@H]2[C@H]1O)O[C@H](C)C[C@@]3(O)CNCc1cccc(F)c1 [compound 15, 3′-(R)-3′-[(3-fluoro)benzylaminomethyl)]dihydrospectinomycin Trihydrochloride] | 12.5 to 25 mg/L | 3.1 to 6.3 mg/L | 100 mg/L | 50 mg/L | 3.1 mg/L | > 200 mg/L | ≥ 200 mg/L | ≥ 200 mg/L | 25 to 50 mg/L | 6.3 to 12.5 mg/L | > 200 mg/L | ≥ 200 mg/L | > 200 mg/L | 200 mg/L | 14 mm | 41 mm | 20 mm | 18 mm | 12.5 to 25 mg/L | 25 mg/L | MIC [3, 29]: 12.5 to 25 mg/L; MIC [7, 23]: 3.1 mg/L; MIC [15, 28]: 12.5 mg/L; MIC [20, 27]: 25 to 50 mg/L; MIC (Yersinia pestis): 100 mg/L; MIC (Listeria monocytogenes): 6.3 mg/L; MIC (Moraxella catarrhalis): 1.6 mg/L
5 | CN[C@@H]1[C@H](O)[C@H](NC)[C@H]2O[C@]3(O)[C@H](O[C@@H]2[C@H]1O)O[C@H](C)C[C@@]3(O)CNCc1cccs1 [compound 17, 3′-(R)-3′-(2-thiophenylmethylaminomethyl)dihydrospectinomycin Trihydrochloride] | 50 mg/L | 25 mg/L | 50 mg/L | 100 to 200 mg/L | 12.5 mg/L | > 200 mg/L | > 200 mg/L | > 200 mg/L | 50 mg/L | 6.3 to 12.5 mg/L | 200 mg/L | ≥ 200 mg/L | > 200 mg/L | 200 mg/L | 13 mm | 41 mm | 15 mm | 11 mm | 50 mg/L | 25 mg/L | MIC [3, 22]: 50 mg/L; MIC ([7]; Streptococcus pyogenes, ATCC700294, read-out: MIC S. py.): 6.3 to 12.5 mg/L; MIC [15, 28]: 6.3 mg/L; MIC [20, 27]: 50 mg/L; MIC (Listeria monocytogenes): 12.5 mg/L; MIC (Moraxella catarrhalis): 3.1 mg/L
6 | CN[C@@H]1[C@H](O)[C@H](NC)[C@H]2O[C@]3(O)[C@H](O[C@@H]2[C@H]1O)O[C@H](C)C[C@@]3(O)CNCc1nccs1 [compound 19, 3′-(R)-3′-(2-thiazolylmethyl)aminomethyldihydrospectinomycin Tetrahydrobromide] | 100 mg/L | 100 mg/L | 100 mg/L | > 200 mg/L | 12.5 mg/L | > 200 mg/L | > 200 mg/L | > 200 mg/L | 200 mg/L | 12.5 to 25 mg/L | > 200 mg/L | > 200 mg/L | > 200 mg/L | > 200 mg/L | 10 mm | 39 mm | 13 mm | 9 mm | 100 mg/L | 100 mg/L | MIC [3, 22]: 50 mg/L; MIC [7, 23]: 12.5 mg/L; MIC [15, 28]: 25 to 50 mg/L; MIC [20, 27]: 100 mg/L; MIC (Listeria monocytogenes): 25 mg/L; MIC (Moraxella catarrhalis): 12.5 mg/L
7 | CN[C@@H]1[C@H](O)[C@H](NC)[C@H]2O[C@]3(O)[C@H](O[C@@H]2[C@H]1O)O[C@H](C)C[C@@]3(O)CNCc1ccc(Cl)s1 [compound 21, 3′-(A′)-3′-[(5-Chloro)-2-thiophenylmethylaminomethyl)dihydrospectinomycin Trihydrobromide] | 50 mg/L | 25 to 50 mg/L | 25 to 50 mg/L | 200 mg/L | 3.1 mg/L | > 200 mg/L | 200 mg/L | 200 mg/L | 50 mg/L | 12.5 mg/L | > 200 mg/L | > 200 mg/L | > 200 mg/L | ≥ 200 mg/L | 13 mm | 22 mm | 19 mm | 20 mm | 50 mg/L | 100 mg/L | MIC [3, 29]: 12.5 mg/L; MIC [7, 23]: 1.6 mg/L; MIC [15, 26]: 12.5 mg/L; MIC ([20]; ATCC49226, read-out: MIC N.g.): 12.5 to 25 mg/L; MIC (Listeria monocytogenes): 6.3 mg/L; MIC (Moraxella catarrhalis): 0.8 mg/L
